Measurements: patent publication US20130310431A1, “USES FOR SUBSTITUTED 2-AMINO-THIAZOLONES IN TREATING ALZHEIMER'S DISEASE” (Amgen Inc, priority 2010, published 2013)
“Also recorded” adds a separate entry of the source.

Legend:
aged Wistar rats = experiment: Novel object recognition study (reversal of age-related behavioral deficits); format: in vivo; conditions: aged (20 months) Wistar rats, 14 day treatment, 3, 10, 30 mg/kg; compared to galantamine; FIG. 1; listed as AMG221
Method: Thus, over a 14 day treatment period, young and aged (20 months) Wistar rats were administered formulations as follows: […]
1. Young: pharmaceutical vehicle (no active agent);
2. Young: galantamine, an acetylcholinesterase inhibitor as a positive control;

[1] = Concentration vs. time profiles in plasma, CSF, brain regions and fat after intravenous infusion; format: in vivo, cynomolgus monkeys; conditions: cynomolgus monkey, intravenous infusion for 1 hour
Method: The concentration of AMG221 in the biological samples described above was measured as a function of time.
The concentration of (B) in the biological samples described above was measured as a function of time.

| Compound | improvement in novel object recognition (aged Wistar rats) | distribution within central nervous system versus fat [1] | time concentrations exceeded the cynomolgus Ki for 11β-HSD1 in unbound plasma [1] | time concentrations exceeded the cynomolgus Ki for 11β-HSD1 in CSF ([1]; CSF) | distribution into fat ([1]; relative to AMG221) |
| --- | --- | --- | --- | --- | --- |
| CC(C)[C@]1(C)SC(N[C@H]2C[C@@H]3CC[C@H]2C3)=NC1=O [Compound (A)] | reverses age-related behavioral deficits; also recorded: superior improvement in novel object recognition | distributed uniformly and more rapidly within the central nervous system than in fat | three |  |  |
| CC(C)[C@]1(C)SC(N[C@H]2C[C@H]3C[C@@H]2C[C@@H]3O)=NC1=O [Compound (B)] |  | distributed uniformly and more rapidly within the central nervous system than in fat | eight | five | distributed poorly into fat |
